Assay results published in ChEMBL document CHEMBL1221299, “Unnatural enantiomer of chaetocin shows strong apoptosis-inducing activity through caspase-8/caspase-3 activation” (Bioorg Med Chem Lett, 2010).
Activity calls are given as the source filed them. The calls are words filed in the database; no cut-off is given here.

What was measured:
Type in all cases: functional, cell-based
[1] = system: HL-60; assay: Induction of apoptosis in human HL60 cells assessed as activation of caspase 3 at 0.3 uM after 2 hrs by Western blot analysis in presence of caspase 9 inhibitor […]
[2] = system: HL-60; assay: Induction of apoptosis in human HL60 cells assessed as nuclear fragmentation at 0.3 uM after 4 hrs using DAPI/PI by confocal laser microscopy analysis
[3] = system: HL-60; assay: Induction of apoptosis in human HL60 cells assessed as necrotic cell death at 30 uM after 4 hrs using DAPI/PI by confocal laser microscopy analysis
[4] = system: HL-60; assay: Induction of apoptosis in human HL60 cells assessed as DNA ladder formation at 0.3 uM after 4 hrs by DNA electrophoresis
[5] = system: HL-60; assay: Induction of apoptosis in human HL60 cells assessed as DNA ladder formation at 30 uM after 4 hrs by DNA electrophoresis
[6] = system: HL-60; assay: Induction of apoptosis in human HL60 cells assessed as increase of cellular ROS level
[7] = system: HL-60; assay: Induction of apoptosis in human HL60 cells assessed as activation of caspase 3 at 0.3 uM after 2 hrs by Western blot analysis
[8] = system: HL-60; assay: Induction of apoptosis in human HL60 cells assessed as activation of caspase 3 at 0.3 uM after 2 hrs by Western blot analysis in presence of caspase inhibitor Z-VAD
[9] = system: HL-60; assay: Induction of apoptosis in human HL60 cells at 0.3 uM in presence of caspase 8 inhibitor Z-IETD
[10] = system: HL-60; assay: Induction of apoptosis in human HL60 cells at 0.3 uM in presence of caspase 9 inhibitor […]
[11] = system: HL-60; assay: Induction of apoptosis in human HL60 cells assessed as activation of caspase 3 at 0.3 uM after 2 hrs by Western blot analysis in presence of caspase 8 inhibitor Z-IETD
[12] = system: HL-60; assay: Potentiation of FAS-ligand-induced apoptosis in human HL60 cells at 30 uM
[13] = system: HL-60; assay: Potentiation of TNF-alpha-ligand-induced apoptosis in human HL60 cells at 30 uM
[14] = system: HL-60; assay: Induction of apoptosis in human HL60 cells assessed as reduction of cell viability at up to 30 uM after 4 hrs by alamar blue assay
[15] = system: HL-60; assay: Induction of apoptosis in human HL60 cells assessed as reduction of cell viability after 4 hrs by alamar blue assay

SMILES | Activity [1] | Activity [2] | Activity [3] | Activity [4] | Activity [5] | Activity [6] | Activity [7] | Activity [8] | Activity [9] | Activity [10] | Activity [11] | Activity [12] | Activity [13] | Activity [14] | Activity [15]
CN1C(=O)[C@]23C[C@@]4([C@@]56C[C@]78SS[C@](CO)(C(=O)N7[C@@H]5Nc5ccccc56)N(C)C8=O)c5ccccc5N[C@H]4N2C(=O)[C@@]1(CO)SS3 | Active | Active | Active | Active | inactive | inactive | Active | inactive | inactive | Active | inactive | inactive | inactive | – | –
CN1C(=O)[C@H]2C[C@]3([C@]45C[C@@H]6C(=O)N(C)[C@H](CO)C(=O)N6[C@H]4Nc4ccccc45)c4ccccc4N[C@@H]3N2C(=O)[C@H]1CO | – | – | – | – | – | – | – | – | – | – | – | – | – | inactive | –
CN1C(=O)[C@@]23C[C@]4([C@]56C[C@@]78SS[C@@](CO)(C(=O)N7[C@H]5Nc5ccccc56)N(C)C8=O)c5ccccc5N[C@@H]4N2C(=O)[C@]1(CO)SS3 | – | Active | Active | inactive | – | inactive | Active | – | – | – | – | – | – | – | Dose-dependent effect
